Test results published in paper PMC9346611, “Impact of an Adenosine A2A Receptor Agonist and Antagonist on Binding of the Dopamine D2 Receptor Ligand [^11C]raclopride in the Rodent Striatum” (Molecular Pharmaceutics, 2022).
Read-outs that look alike come from different tables or passages of the source. Marks after values point to notes of the source that are not given here.

How the values were obtained:
[1] = parameters: method as in PMID 1684818; conditions: cited from earlier work
dopamine D2 receptor = conditions: 1 mg/kg
Protocol: Pretreatment of animals with a high dose of a specific (nonradioactive) receptor ligand is the standard method used in PET imaging to assess whether a PET tracer binds to its intended target. […] Only one PET scan was made in animals subjected to arterial blood sampling.
Blood samples with a volume of 0.10–0.13 mL were drawn from the femoral artery at 10, 20, 30, 40, 50, 60, and 90 s and 2, 3, 5, 7.5, 10, 15, 30, and 60 min after tracer administration. After the collection of each sample, an equal volume of saline with 1% heparin was infused into the artery to compensate for the blood volume loss. Larger blood samples (0.8–1 mL) were drawn at 5, 10, 30, and 60 min for [^11C]raclopride metabolite analysis. From each blood sample, a plasma sample was obtained by the centrifugation of whole blood for 5 min at 3000 g.

dopamine release [2] = test system: dopamine release; parameters: method as in PMID 15525341; conditions: locally administered 3, 10, 50, and 100 μM; cited from earlier work
dopamine D2R = test system: dopamine D2R; parameters: method as in PMID 1678519; conditions: rat striatal membrane preparations; cited from earlier work
D2R [3] = conditions: CHO cells co-transfected with A2AR and D2R; cited from earlier work
D2R [4] = test system: D2R; parameters: method as in PMID 11435907; conditions: human brain slices, striatal area; cited from earlier work
human D2R = test system: human D2R; parameters: method as in PMID 8982704, PMID 10617149; conditions: SH-SY5Y cells; cited from earlier work
dopamine release [5] = test system: dopamine release; parameters: method as in PMID 10502311; conditions: low doses 0.01–1 μM; cited from earlier work
D2R [6] = test system: D2R; parameters: method as in PMID 11435907; conditions: rat brain slices, striatal area; cited from earlier work
D2R [7] = test system: D2R; parameters: method as in PMID 26100888; conditions: transiently transfected CHO cells; cited from earlier work
[8] = Heart rate monitoring with pulse oximeters during PET scan; type: in vivo; conditions: 1 mg/kg, persisted throughout the scan
[9] = cited from earlier work
dopamine D2/D3 receptors = target: dopamine D2/D3 receptors; parameters: method as in PMID 2528555; conditions: cited from earlier work
D2R/D3R = test system: D2R/D3R; parameters: method as in PMID 25871974; conditions: human, oral 300 mg; cited from earlier work

Compound	k3, accumbens (2TCM) (dopamine D2 receptor)	k3, caudate-putamen (2TCM) (dopamine D2 receptor)	k3, cerebellum (2TCM) (dopamine D2 receptor)	k3, globus pallidus (2TCM) (dopamine D2 receptor)	k3, striatum (2TCM) (dopamine D2 receptor)	k3/k4, accumbens (2TCM) (dopamine D2 receptor)	k3/k4, caudate-putamen (2TCM) (dopamine D2 receptor)	k3/k4, cerebellum (2TCM) (dopamine D2 receptor)	k3/k4, globus pallidus (2TCM) (dopamine D2 receptor)	k4, accumbens (2TCM) (dopamine D2 receptor)	k4, caudate-putamen (2TCM) (dopamine D2 receptor)	k4, cerebellum (2TCM) (dopamine D2 receptor)	k4, globus pallidus (2TCM) (dopamine D2 receptor)	k4, striatum (2TCM) (dopamine D2 receptor)	affinity of D2R for radioligands [^3H]quinpirole and [^3H]raclopride (D2R [7])	also measured
CCNC(=O)[C@H]1O[C@@H](n2cnc3c(N)ncnc32)[C@H](O)[C@@H]1O [NECA, 5’-N-ethylcarboxamide adenosine]	–	–	–	–	–	–	–	–	–	–	–	–	–	–	–	effect on heart rate, bolus of low doses [1]: tachycardia; effect on heart rate, high dose ([1]; total dose of 3 mg/kg infused over 60 min): rapid reduction in heart rate
CCNC(=O)[C@H]1O[C@@H](n2cnc3c(N)nc(NCCc4ccc(CCC(=O)O)cc4)nc32)[C@H](O)[C@@H]1O [CGS21680]	0.012 ± 0.006*** min^–1	0.034 ± 0.014*** min^–1	0.028 ± 0.012*** min^–1	0.029 ± 0.017*** min^–1	0.033 ± 0.013*** min^–1	0.87 ± 0.20	1.28 ± 0.35	1.19 ± 0.32	1.63 ± 3.6	0.015 ± 0.008*** min^–1	0.026 ± 0.009** min^–1	0.023 ± 0.010** min^–1	0.022 ± 0.021** min^–1	0.026 ± 0.009** min^–1	reduces the affinity	dopamine release in entire striatum and shell of nucleus accumbens (dopamine release [2]): increase; decrease of affinity of dopamine D2R for agonist L-(−)-[^3H]NPA (dopamine D2R): 40%; change of D2R numbers (D2R [3]): without any change; change of affinity of D2R for dopamine (D2R [3]): three- to fourfold decrease; IC50 values of competition between [^125I]iodosulpiride and dopamine (D2R [4]): significant increase; change of affinity of D2R to agonists (human D2R): two- to threefold decreased; electrically evoked dopamine release (dopamine release [5]): inhibit; IC50 values of competition between [^125I]iodosulpiride and dopamine (D2R [6]): significant increase; heart rate, reduction in some animals down to [8]: 94 bpm
CCn1c(=O)c2c(nc(/C=C/c3ccc(OC)c(OC)c3)n2C)n(CC)c1=O [KW6002, istradefylline]	0.035 ± 0.015 min^–1	0.086 ± 0.027** min^–1	0.072 ± 0.028 min^–1	0.087 ± 0.028* min^–1	0.085 ± 0.027** min^–1	0.91 ± 0.27	2.02 ± 0.52	1.75 ± 0.52	1.86 ± 0.54	0.039 ± 0.013 min^–1	0.043 ± 0.012 min^–1	0.041 ± 0.011 min^–1	0.048 ± 0.013 min^–1	0.043 ± 0.011 min^–1	–	peripheral effects ([9]; rat, in vivo): does not have potent peripheral effects; tolerability after intraperitoneal administration ([9]; rats, doses up to 3 mg/kg): well tolerated; k3/k4, striatum (2TCM) (dopamine D2 receptor): 2.00 ± 0.53
CCN1CCC[C@H]1CNC(=O)c1c(O)c(Cl)cc(Cl)c1OC (racemic) [[^11C]raclopride]	–	–	–	–	–	–	–	–	–	–	–	–	–	–	–	Kd (dopamine D2/D3 receptors; read-out: affinity (Kd) by equilibrium analysis): 10 nM; Kd (dopamine D2/D3 receptors; read-out: equilibrium dissociation constant KdVR by compartmental modeling): 6.2 nM
Cn1c(=O)c2c(ncn2C)n(C)c1=O [caffeine]	–	–	–	–	–	–	–	–	–	–	–	–	–	–	reduces the affinity	increase of D2R/D3R availability in putamen and ventral striatum (D2R/D3R): 5–6%
